These are literature values, as cited in patent US6770617B2, “Softener composition” (Kao Corporation, priority 2001, dated 2004).

The conditions of this data set: 1-octanol/water; actual value if there was one, otherwise Clog P calculated with CLOGP v4.01.
As a reminder, the log P is a log measure of how a compound divides between an organic and an aqueous phase. For the molecule `CCCCCOCC(O)CO` (stereo not drawn) [(c-1), Pentyl glyceryl ether], the “log P” value is recorded as 0.54.
On to `OCCOCCOCCOc1ccccc1` [(c-3), Triethylene glycol monophenyl ether], for which the lipophilicity (log P) is given as 1.32.
In the case of `CCCOC(C)COC(C)CO` (stereo not drawn) [(c-2), Dipropylene glycol monopropyl ether], the “log P” value is 0.99.
